This test concerns the target T1, Ubiquitin carboxyl-terminal hydrolase BAP1 (Homo sapiens, UniProt Q92560).
T1 sequence (Q92560 whole entry): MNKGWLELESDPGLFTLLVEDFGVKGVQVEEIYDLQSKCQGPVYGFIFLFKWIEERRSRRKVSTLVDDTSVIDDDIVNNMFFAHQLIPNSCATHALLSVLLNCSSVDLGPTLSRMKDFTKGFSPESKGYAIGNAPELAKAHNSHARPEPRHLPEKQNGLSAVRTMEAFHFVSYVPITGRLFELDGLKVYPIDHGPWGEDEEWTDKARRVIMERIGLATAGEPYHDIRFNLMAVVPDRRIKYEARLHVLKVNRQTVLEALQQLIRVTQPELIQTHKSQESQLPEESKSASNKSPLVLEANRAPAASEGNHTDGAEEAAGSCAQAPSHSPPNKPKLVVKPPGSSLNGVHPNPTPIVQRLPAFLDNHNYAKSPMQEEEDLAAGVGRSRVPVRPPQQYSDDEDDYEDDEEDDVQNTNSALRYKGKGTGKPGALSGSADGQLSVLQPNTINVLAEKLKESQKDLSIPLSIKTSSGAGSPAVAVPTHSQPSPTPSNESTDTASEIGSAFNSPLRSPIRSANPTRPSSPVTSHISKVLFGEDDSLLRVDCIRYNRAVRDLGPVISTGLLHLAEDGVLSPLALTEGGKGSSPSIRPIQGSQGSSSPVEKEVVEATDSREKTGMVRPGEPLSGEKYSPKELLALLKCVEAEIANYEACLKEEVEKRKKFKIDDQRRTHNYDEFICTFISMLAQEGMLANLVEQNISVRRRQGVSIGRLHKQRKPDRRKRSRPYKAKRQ
Kind of test: BAP1 deubiquitinase inhibitors, dose response, biochemical (AID 714).

As for `CCCOC(=O)C1=C(C)N=C2CCCC(=O)C2C1c1cccc(OC)c1OC` (configuration not stated) [4-(2,3-dimethoxyphenyl)-2-methyl-5-oxo-4,6,7,8-tetrahydro-1H-quinoline-3-carboxylic acid propyl ester], the IC50 amounted to 33.9 µM. For `CC(=O)C1=C(C)N=C(SCC(=O)c2ccc(Cl)c(Cl)c2)C(C#N)C1c1ccco1` (configuration not stated) [5-acetyl-2-[2-(3,4-dichlorophenyl)-2-oxoethyl]sulfanyl-4-(furan-2-yl)-6-methyl-1,4-dihydropyridine-3-carbonitrile], the IC50 is over 50 µM.

By IC50 is commonly meant the point on the concentration scale where inhibition reaches its midpoint.

(Values after BindingDB's records for doi:10.7270/Q2KW5DFJ (Emory University, 2007).)
